Measured values published in patent US11834450B2, “Compounds having ((3-nitrophenyl)sulfonyl)acetamide as BCL-2 inhibitors” (Eil Therapeutics, Inc., priority 2021, dated 2023).

Assays:
BCL-2 = target: T1, BCL-2 (Homo sapiens, UniProt P10415); experiment: BCL-2 TR-FRET Assay (primary PPI inhibition); format: binding; details: 60 min incubation; read-out: BCL2 (IC50 code, BCL-2 TR-FRET)
T1 construct: purchased BPS Bioscience #50222

BCL-XL = target: T2, BCL-XL (Homo sapiens, UniProt Q07817); experiment: BCL-XL TR-FRET Assay (primary PPI inhibition); format: binding; details: 60 min incubation; read-out: BCLxL (IC50 code, BCL-XL TR-FRET)
T2 construct: purchased BPS Bioscience #50223
T2 sequence (Q07817 whole entry): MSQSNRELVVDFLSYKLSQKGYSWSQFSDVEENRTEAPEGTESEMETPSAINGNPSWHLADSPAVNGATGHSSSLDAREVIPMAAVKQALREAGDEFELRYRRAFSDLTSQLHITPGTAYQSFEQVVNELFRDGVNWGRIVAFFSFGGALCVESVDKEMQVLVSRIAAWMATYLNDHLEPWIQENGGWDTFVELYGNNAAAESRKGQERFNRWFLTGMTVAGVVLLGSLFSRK
Description: BCL-XL TR-FRET Assay (BPS Bioscience, #50223) Assay Condition: The following assay concentrations and times were used: 10.5 ng BCL-XL, 5 ul of 1:100 anti-His Tb-labeled donor, 5 ul of 1:100 Dye-labeled acceptor, 5 ul of 1:80 BCL-XL Peptide Ligand, and 2 ul of test compound, with 60 min incubation time. The results of the assay were read using a Clariostar (BMG Labtech) plate reader with the following parameters: TR FRET, 340 ex/620 and 665 em; 60 μsec Delay; and 500 μsec integration.

RS4-11 cells = experiment: Cell viability assay RS4-11 (CellTiter-Glo); format: cell-based; details: Homo sapiens, 72 h; RS4-11 cells, 3 days, CellTiter-Glo; read-out: RS4-11 (CC50 code)
Description: (§1) Assay Condition: Used culture medium for HEK293-DMEM (PanEco, Cat #C420), for the rest of the cell lines—culture medium RPMI-1640 (PanEco, Cat #C363).
(§2) Assay Procedure: Compounds were prepared as 200× stocks with serial dilution in 100% DMSO with a final concentration of 1×. Dispersed 40 μl in 384-well plates at a concentration of 2000 cells per well for HEK293 and at a concentration of 4000 cells per well for the rest of the cell lines using a robotic station Biomek (Beckman). Before adding compounds, the cells were incubated at 37° C. (HEK293 were incubated for a day before adding compounds).
(§3) A dilution plate was prepared by pouring 78 μl of the appropriate culture medium using a robotic station Biomek (Beckman). Sequentially, using a robotic station, 2 μl of substances were taken and added to 78 μl of culture medium (dilution of compounds 40×). Took from there 10 μl and added to the plates to the cells (dilution of compounds 5×). The plates were incubated for 3 days at a temperature 37° C. After 3 days, 10 μl of CellTiter-Glo (Promega) was added to the cells and the luminescence was measured.

MOLT-4 cells = experiment: Cell viability assay MOLT-4 (CellTiter-Glo); format: cell-based; details: Homo sapiens, 72 h; MOLT-4 cells, 3 days, CellTiter-Glo; read-out: MOLT-4 (CC50 code)
Description: as §1, §2, §3

[1] = Cell viability assay HEK293 (CellTiter-Glo); format: cell-based; details: human, HEK293 cells, read-out: HEK293 (CC50 code)
Description: as §1, §2, §3

[2] = system: caspase-3 and -7 activities in RS4-11 cells; experiment: Cas-3/7 activation (Caspase-Glo 3/7) in RS4-11 cells; format: cell-based; details: Homo sapiens, 3.5 h at 37° C. and 30 min at r.t., read-out: Cas-3/7 (EC50 code)
Description: Assay Principle: The Caspase-Glo 3/7 Assay is homogeneous, luminescent assay that measures caspase-3 and -7 activities. The assay provides a luminogenic caspase-3/7 substrate, which contains the tetrapeptide sequence DEVD, in a reagent optimized for caspase activity.
Assay Procedure: Incubate RS4-11 cells with varying concentrations of test compounds for 3.5 h in a humidified incubator at 37° C. and 5% CO2 and 30 min at r.t. Add 15 μl Caspase-Glo reagent to each well and incubate the plate for 30 min at r.t. Read on ClarioStar Plus instrument.
Materials: Promega Caspase-Glo (Promega, #8212); Frozen RS4-11 cells; 384-well white plate (Corning, #3570).
Instrumentation: ClarioStar Plus; Biomek FX for liquid handling (Beckman Coulter).

T1 sequence (P10415 whole entry): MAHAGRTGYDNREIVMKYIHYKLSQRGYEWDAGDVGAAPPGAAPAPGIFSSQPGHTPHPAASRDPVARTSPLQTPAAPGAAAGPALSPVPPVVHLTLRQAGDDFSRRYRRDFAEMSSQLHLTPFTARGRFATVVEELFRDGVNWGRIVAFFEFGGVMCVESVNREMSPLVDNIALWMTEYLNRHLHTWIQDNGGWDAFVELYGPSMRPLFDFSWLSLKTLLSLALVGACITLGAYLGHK

| SMILES | IC50 (BCL-2) [nM] | IC50 (BCL-XL) [nM] | EC50 [2] [nM] | CC50 (RS4-11 cells) [nM] | CC50 (MOLT-4 cells) [nM] | CC50 at 3 days [1] [nM] |
| --- | --- | --- | --- | --- | --- | --- |
| O=C(NS(=O)(=O)c1ccc(NCC2CCOCC2)c([N+](=O)[O-])c1)c1ccc(N2CCN(CC(O)(c3ccccc3)c3ccc(F)c(F)c3)CC2)cc1Oc1cnc2[nH]ccc2c1 (centres unmarked) [Compound 11, 4-[4-[2-(3,4-difluorophenyl)-2-hydroxy-2-phenyl-ethyl]piperazin-1-yl]-N-[3-nitro-4-(tetrahydropyran-4-ylmethylamino)phenyl]sulfonyl-2-(1H-pyrrolo[2,3-b]pyridin-5-yloxy)benzamide] | > 50 | > 4000 | > 250 | > 200 | 2000 to 10000 | > 25000 |
| CC(C)C(=O)N1Cc2ccc(F)cc2C[C@H]1CN1CCN(c2ccc(C(=O)NS(=O)(=O)c3ccc(NCC4CCOCC4)c([N+](=O)[O-])c3)c(Oc3cnc4[nH]ccc4c3)c2)CC1 [Compound 45, 4-[4-[[(3S)-6-fluoro-2-(2-methylpropanoyl)-3,4-dihydro-1H-isoquinolin-3-yl]methyl]piperazin-1-yl]-N-[3-nitro-4-(tetrahydropyran-4-ylmethylamino)phenyl]sulfonyl-2-(1H-pyrrolo[2,3-b]pyridin-5-yloxy)benzamide] | > 50 | > 4000 | > 250 | > 200 | > 10000 | > 25000 |
| O=C(NS(=O)(=O)c1ccc(NCC2CCOCC2)c([N+](=O)[O-])c1)c1ccc(N2CCN(C[C@H]3Cc4ccccc4CN3C(=O)C3CC3)CC2)cc1Oc1cnc2[nH]ccc2c1 [Compound 33, 4-[4-[[(3R)-2-(cyclopropanecarbonyl)-3,4-dihydro-1H-isoquinolin-3-yl]methyl]piperazin-1-yl]-N-[3-nitro-4-(tetrahydropyran-4-ylmethylamino)phenyl]sulfonyl-2-(1H-pyrrolo[2,3-b]pyridin-5-yloxy)benzamide] | 10 to 50 | > 4000 | > 250 | > 200 | 2000 to 10000 | > 25000 |
| O=C(NS(=O)(=O)c1ccc(NCC2CCOCC2)c([N+](=O)[O-])c1)c1ccc(N2CCN(CC(O)(c3ccccc3)c3ccc(Cl)cc3)CC2)cc1Oc1cnc2[nH]ccc2c1 (centres unmarked) [Compound 43, 4-[4-[2-(4-chlorophenyl)-2-hydroxy-2-phenyl-ethyl]piperazin-1-yl]-N-[3-nitro-4-(tetrahydropyran-4-ylmethylamino)phenyl]sulfonyl-2-(1H-pyrrolo[2,3-b]pyridin-5-yloxy)benzamide] | > 50 | > 4000 | > 250 | > 200 | 2000 to 10000 | > 25000 |
| CC1(C)CN(CC2CCN(c3ccc(C(=O)NS(=O)(=O)c4ccc(NCC5CCOCC5)c([N+](=O)[O-])c4)c(Oc4cnc5[nH]ccc5c4)c3)CC2)Cc2ccccc21 [Compound 39, 4-[4-[(4,4-dimethyl-1,3-dihydroisoquinolin-2-yl)methyl]-1-piperidyl]-N-[3-nitro-4-(tetrahydropyran-4-ylmethylamino)phenyl]sulfonyl-2-(1H-pyrrolo[2,3-b]pyridin-5-yloxy)benzamide] | > 50 | > 4000 | > 250 | > 200 | 2000 to 10000 | > 25000 |
| CC1(C)Cc2ccccc2CN1CC1CCN(c2ccc(C(=O)NS(=O)(=O)c3ccc(NCC4CCOCC4)c([N+](=O)[O-])c3)c(Oc3cnc4[nH]ccc4c3)c2)CC1 [Compound 38, 4-[4-[(3,3-dimethyl-1,4-dihydroisoquinolin-2-yl)methyl]-1-piperidyl]-N-[3-nitro-4-(tetrahydropyran-4-ylmethylamino)phenyl]sulfonyl-2-(1H-pyrrolo[2,3-b]pyridin-5-yloxy)benzamide] | > 50 | > 4000 | > 250 |  |  |  |
| CC(C)C(=O)N1Cc2ccccc2C[C@@H]1CN1CCN(c2ccc(C(=O)NS(=O)(=O)c3ccc(NCC4CCOCC4)c([N+](=O)[O-])c3)c(Oc3cnc4[nH]ccc4c3)c2)CC1 [Compound 37, 4-[4-[[(3R)-2-(2-methylpropanoyl)-3,4-dihydro-1H-isoquinolin-3-yl]methyl]piperazin-1-yl]-N-[3-nitro-4-(tetrahydropyran-4-ylmethylamino)phenyl]sulfonyl-2-(1H-pyrrolo[2,3-b]pyridin-5-yloxy)benzamide] | > 50 | > 4000 | > 250 |  |  |  |

Continued, in another order:

| IC50 (BCL-2) [nM] | IC50 (BCL-XL) [nM] | EC50 [2] [nM] | SMILES | CC50 (RS4-11 cells) [nM] | CC50 (MOLT-4 cells) [nM] | CC50 at 3 days [1] [nM] |
| --- | --- | --- | --- | --- | --- | --- |
| < 5 | ≤ 2000 | 100 to 250 | CC1(O)CC[C@H](CN2CCN(c3ccc(C(=O)NS(=O)(=O)c4ccc(NCC5CCOCC5)c([N+](=O)[O-])c4)c(Oc4cnc5[nH]ccc5c4)c3)CC2)[C@@H](c2ccc(Cl)cc2)C1 (stereo partly drawn) [Compound 28, 4-[4-[[(1S,2S)-2-(4-chlorophenyl)-4-hydroxy-4-methyl-cyclohexyl]methyl]piperazin-1-yl]-N-[3-nitro-4-(tetrahydropyran-4-ylmethylamino)phenyl]sulfonyl-2-(1H-pyrrolo[2,3-b]pyridin-5-yloxy)benzamide] | 100 to 200 | 2000 to 10000 | > 25000 |
| > 50 | > 4000 | > 250 | CC1=CC[C@@H]2C[C@H]1[C@H](c1ccc(Cl)cc1)N(CC1CCN(c3ccc(C(=O)NS(=O)(=O)c4ccc(NCC5CCOCC5)c([N+](=O)[O-])c4)c(Oc4cnc5[nH]ccc5c4)c3)CC1)C2 [Compound 55, 4-[4-[[(1R,4R, 5R)-4-(4-chlorophenyl)-6-methyl-3-azabicyclo[3.3.1]non-6-en-3-yl]methyl]-1-piperidyl]-N-[3-nitro-4-(tetrahydropyran-4-ylmethylamino)phenyl]sulfonyl-2-(1H-pyrrolo[2,3-b]pyridin-5-yloxy)benzamide] | > 200 | 2000 to 10000 | > 25000 |
| 5 to 10 | ≤ 2000 | ≤ 100 | CC1(O)CC[C@@H](CN2CCN(c3ccc(C(=O)NS(=O)(=O)c4ccc(NCC5CCOCC5)c([N+](=O)[O-])c4)c(Oc4cnc5[nH]ccc5c4)c3)CC2)[C@H](c2ccc(Cl)cc2)C1 (stereo partly drawn) [Compound 52, 4-[4-[[(1R,2R)-2-(4-chlorophenyl)-4-hydroxy-4-methyl-cyclohexyl]methyl]piperazin-1-yl]-N-[3-nitro-4-(tetrahydropyran-4-ylmethylamino)phenyl]sulfonyl-2-(1H-pyrrolo[2,3-b]pyridin-5-yloxy)benzamide] | < 100 | 2000 to 10000 | 10000 to 25000 |
| 10 to 50 | 2000 to 4000 | > 250 | O=C(NS(=O)(=O)c1ccc(NCC2CCOCC2)c([N+](=O)[O-])c1)c1ccc(N2CCC(CN3C(=O)C4(CCNCC4)C3c3ccc(Cl)cc3)CC2)cc1Oc1cnc2[nH]ccc2c1 (centres unmarked) [Compound 56, 4-[4-[[1-(4-chlorophenyl)-3-oxo-2,7-diazaspiro[3.5]nonan-2-yl]methyl]-1-piperidyl]-N-[3-nitro-4-(tetrahydropyran-4-ylmethylamino)phenyl]sulfonyl-2-(1H-pyrrolo[2,3-b]pyridin-5-yloxy)benzamide] | > 200 | > 10000 | > 25000 |
| > 50 |  | > 250 | O=C(NS(=O)(=O)c1ccc(NCC2CCOCC2)c([N+](=O)[O-])c1)c1ccc(N2CCC(CN3CCCCCC3c3ccc(Cl)cc3)CC2)cc1Oc1cnc2[nH]ccc2c1 (centres unmarked) [Compound 44, 4-[4-[[2-(4-chlorophenyl)azepan-1-yl]methyl]-1-piperidyl]-N-[3-nitro-4-(tetrahydropyran-4-ylmethylamino)phenyl]sulfonyl-2-(1H-pyrrolo[2,3-b]pyridin-5-yloxy)benzamide] | > 200 | 2000 to 10000 | > 25000 |
